Results as given in patent US20060019945A1, “Granzyme b inhibitors” (priority 2002, published 2006).

Biological target: T1, human granzyme B (Homo sapiens, UniProt P10144)
T1 construct: the first amino acid of mature granzyme B; hexa-histidine tag (N, cleaved yes); Factor Xa recognition site Ile-Glu-Gly-Arg (N, cleaved yes); honeybee melittin secretion signal (N, cleaved yes); made in house; host or cells: Sf9 insect cells (baculovirus, Bac-to-Bac)
Experiment: Fluorogenic assay for granzyme B (Ac-IEPD-AMC substrate)
Type: biochemical
Details: recombinant granzyme B, substrate Ac-IEPD-AMC 10 μM, pH 7.5, 25° C.; read-out: Gzm B Ki
Text: Plasmids pMelBac and the TA Cloning Kit (pCR2.1) were purchased from Invitrogen (Carlsbad, Calif.). The Bac-to-Bac Baculovirus Expression System and all cell culture supplies were from Life Technologies (Gaithersburg, Md.). The human granzyme B protease has been identified and is known in the art. See, for example, Poe, et al., J. Biol. Chem. 266, 98-103. A vector was generated for secreted protein expression in the Bac-to-Bac system. The honeybee melittin secretion signal was amplified from pMelBac by PCR with primers 5′-GTGT AGATCTATGAAATTCTTAGTCAACG-3′ and 5′-TTCAGCAGAGTCGACTCCAAG-3′. The amplified product contained a BglII site upstream of the melittin secretion signal and spanned the multiple cloning site of the vector. The fragment was digested with BglII and EcoRI and subcloned into BamHI and EcoRI digested pFastBac. The resulting vector was designated pSecBac. Activatable tagged human granzyme B was cloned into pSecBac in two sequential steps. Firstly, mature granzyme B was amplified by PCR with primers 5′-GGATCC ATC GAA GGT CGT ATC ATC GGAGGACATGAGGCC-3′ and 5′-AAGCTTTTAGTAGCGCTTCATGGTCTTCTTTATCC-3′ and cloned into pCR2.1. In the sense primer, the bold type sequence coding for the Factor Xa recognition site, Ile-Glu-Gly-Arg, was inserted upstream of isoleucine 21 (referred to as ILE 16 in this paper using the numbering scheme for this family of serine proteases is traditionally based on the zymogen, chymotrypsinogen), the first amino acid of mature granzyme B. Secondly, hexa-histidine tagged, activatable granzyme B was amplified from the granzyme B/pCR2.1 clone by PCR using primers 5′-GGAAGATCTCATCATCATCATCATCATGGATCCATCGAAGGTCGTATC-3′ and 5′-CCT GAA TTC TTA GTA GCG TIT CAT GGT CTT CTT TAT CC-3′. The amplified product contained a Bali site upstream of the hex-histidine tag and contained the Factor Xa recognition sequence. This fragment was digested with Bali and ECOR and subcloned into BamHI and EcoRI digested pSecBac. The completed vector generated a recombinant baculovirus in Gibco BRL's Bac-to-Bac system, which would produce a secreted, 6-histidine tagged granzyme B. For protein expression, sf9 cells were grown to a density of 1.5×10^6 cells ml^−1 in Grace's medium (Cat. 11605-094) supplemented with 10% fetal calf serum and penicillin-streptomycin-glutamine (Cat. 10378-024). Prior to the addition of virus, cells were centrifuged at 1000×g for 15 minutes and resuspended to the same density in fresh growth medium containing recombinant viral stock and SP Sepharose beads (4 ml resin per liter of culture). After 72 hours of induction at 27° C., the resin was collected in a 50 micron Nylon mesh (PGC Scientifics), extensively washed with 50 mM Mes.NaOH, 0.3 M Na Cl, pH 6.6 and poured onto a column. The protein was eluted using a linear gradient (0.3 to 1.0 M) of NaCl. Fractions containing granzyme B activity were identified, combined and concentrated and then diluted in 20 mM Tris.HCl, pH 8.0. The sample was readjusted to a final pH 8.0, CaCl2 (3 mM final concentration) and factor Xa (Pharmacia, 10 units per mg of protein) were added, and incubated for 18 hours at room temperature to generate active granzyme B. Under these conditions, complete cleavage is achieved. The recombinant granzyme B was purified from the cleavage mixture using a 1 ml HiTrap SP column (Pharmacia). The yield can be as much as 4-5 mg of purified granzyme B per liter of culture. Mass spectral analysis identifies one major peak at 27,466 Da (other components of 27,320 Da and 26,630 Da were also consistently observed). Since the combined mass of the 227-amino acids defined by sequence analysis only accounts for 25,511.58 Da, we concluded that preparations of recombinant granzyme B purified with this method are more homogenous and less glycosylated than preparations of native granzyme B purified from NK cell granules. […]

T1 sequence (P10144 21-247): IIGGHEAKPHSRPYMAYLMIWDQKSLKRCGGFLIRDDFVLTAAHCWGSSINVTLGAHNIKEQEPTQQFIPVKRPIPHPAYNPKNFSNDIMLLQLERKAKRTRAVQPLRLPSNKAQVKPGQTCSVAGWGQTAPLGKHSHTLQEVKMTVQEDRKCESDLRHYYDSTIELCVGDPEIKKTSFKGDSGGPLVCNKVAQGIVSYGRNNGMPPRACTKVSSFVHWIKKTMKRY

Ki [nM]	Structure (SMILES)
13	CC[C@H](C)[C@H](NC(=O)Cc1ccccc1)C(=O)N[C@H]1CCc2cccc3c2N(C1=O)[C@H](C(=O)NCc1c[nH]nn1)C3 [Example 4, (2S,5S)-4-oxo-5-{[N-(phenylacetyl)-L-isoleucyl]amino}-N-(1H-1,2,3-triazol-4-ylmethyl)-1,2,4,5,6,7-hexahydroazepino[3,2,1-hi]indole-2-carboxamide]
38	CC[C@H](C)[C@H](NC(C)=O)C(=O)N[C@H]1CCc2cccc3c2N(C1=O)[C@H](C(=O)NCc1c[nH]nn1)C3 [Example 2, (2S,5S)-5-[(N-acetyl-L-isoleucyl)amino]-4-oxo-N-(1H-1,2,3-triazol-4-ylmethyl)-1,2,4,5,6,7-hexahydroazepino[3,2,1-hi]indole-2-carboxamide]
36	CC[C@H](C)[C@H](NC(=O)Cc1cccc(F)c1F)C(=O)N[C@H]1CCc2cccc3c2N(C1=O)[C@H](C(=O)NCc1nn[nH]n1)C3 [Example 24]
45	CC[C@H](C)[C@H](NC(=O)CN(C)C)C(=O)N[C@H]1CCc2cccc3c2N(C1=O)[C@H](C(=O)NCc1c[nH]nn1)C3 [Example 27]
17	CC[C@H](C)[C@H](NC(=O)Cc1csc2ccccc12)C(=O)N[C@H]1CCc2cccc3c2N(C1=O)[C@H](C(=O)NCc1nn[nH]n1)C3 [Example 26]
7	CC[C@H](C)[C@H](NC(=O)Cc1csc2ccccc12)C(=O)N[C@H]1CCc2cccc3c2N(C1=O)[C@H](C(=O)NCc1c[nH]nn1)C3 [Example 28]

More lines, now with the values behind:

Structure (SMILES)	Ki [nM]
CC[C@H](C)[C@H](NC(=O)CN(C)C)C(=O)N[C@H]1CCc2cccc3c2N(C1=O)[C@H](C(=O)NCc1nn[nH]n1)C3 [Example 25]	203
CC[C@H](C)[C@@H](C(=O)N[C@H]1CCc2cccc3c2N(C1=O)[C@H](C(=O)NCc1c[nH]nn1)C3)N1CCCC1=O [Example 30]	112
CC[C@H](C)[C@H](NC(C)=O)C(=O)N[C@H]1CCc2cccc3c2N(C1=O)[C@H](C(=O)NCc1cn2cccnc2n1)C3 [Example 19]	788
CC(=O)N[C@H](C(=O)N[C@H]1CCc2cccc3c2N(C1=O)[C@H](C(=O)NCc1c[nH]nn1)C3)C1CC1 [Example 32]	1020
O=C(CC1CCCC1)N[C@H]1CCc2cccc3c2N(C1=O)[C@H](C(=O)NCc1c[nH]nn1)C3 [Example 31]	1840
CC[C@H](C)[C@H](NC(C)=O)C(=O)N[C@H]1CCc2cccc3c2N(C1=O)[C@H](C(=O)NCc1nn[nH]n1)C3 [Example 1, (2S,5S)-5-[(N-acetyl-L-isoleucyl)amino]-4-oxo-N-(1H-tetraazol-5-ylmethyl)-1,2,4,5,6,7-hexahydroazepino[3,2,1-hi]indole-2-carboxamide]	74
CC(=O)N1CSC(C)(C)[C@H]1C(=O)N[C@H]1CCc2cccc3c2N(C1=O)[C@H](C(=O)NCc1c[nH]nn1)C3 [Example 29]	3880
CC(C)[C@@H](C(=O)N[C@H]1CCc2cccc3c2N(C1=O)[C@H](C(=O)NCc1nn[nH]n1)C3)c1ccccn1 [Example 21]	410
CC(=O)N[C@H](C(=O)N[C@H]1CCc2cccc3c2N(C1=O)[C@H](C(=O)NCc1c[nH]nn1)C3)C1CCCC1 [Example 33]	71
